A word on the IC50: it is the concentration at which inhibition is half-maximal. High values mean weaker potency, low ones greater potency.

The target of assay [1] is T1, Mismatch repair endonuclease PMS2 (UniProt P54278).
T1 sequence (P54278 whole entry): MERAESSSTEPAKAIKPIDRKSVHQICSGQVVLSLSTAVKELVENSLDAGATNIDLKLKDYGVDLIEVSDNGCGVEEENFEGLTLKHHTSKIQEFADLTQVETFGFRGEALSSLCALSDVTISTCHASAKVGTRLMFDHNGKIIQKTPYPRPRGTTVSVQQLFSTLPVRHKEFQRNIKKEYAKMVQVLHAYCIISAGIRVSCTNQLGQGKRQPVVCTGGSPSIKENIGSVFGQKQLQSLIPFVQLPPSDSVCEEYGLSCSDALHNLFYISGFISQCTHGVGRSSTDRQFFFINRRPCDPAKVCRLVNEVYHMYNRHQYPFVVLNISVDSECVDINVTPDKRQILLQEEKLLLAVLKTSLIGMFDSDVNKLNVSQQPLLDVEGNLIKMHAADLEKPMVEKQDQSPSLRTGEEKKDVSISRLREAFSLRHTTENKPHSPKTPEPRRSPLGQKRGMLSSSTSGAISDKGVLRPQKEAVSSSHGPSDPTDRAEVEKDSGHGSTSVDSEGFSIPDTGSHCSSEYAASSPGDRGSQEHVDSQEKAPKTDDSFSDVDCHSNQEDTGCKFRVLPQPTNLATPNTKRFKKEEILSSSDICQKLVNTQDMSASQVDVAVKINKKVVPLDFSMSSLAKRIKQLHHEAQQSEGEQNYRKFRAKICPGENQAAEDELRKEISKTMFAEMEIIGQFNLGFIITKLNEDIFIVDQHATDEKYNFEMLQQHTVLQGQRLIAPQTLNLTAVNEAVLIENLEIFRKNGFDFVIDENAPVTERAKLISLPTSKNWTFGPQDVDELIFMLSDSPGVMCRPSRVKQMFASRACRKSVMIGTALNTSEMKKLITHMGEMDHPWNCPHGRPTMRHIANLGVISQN
Description: Fluorescence Polarisation Assay for PMS2. As to the method: 20 μL assay buffer was added to all wells in columns 1 and 24 (column 24 only for single point screening) using a MultiDrop Combi (ThermoFisher). Plates were centrifuged for 1 minute at 250×g and were incubated at room temperature for 30 minutes prior to the addition of 20 μL of 2×([…]) of 5-((5-(4-((2-(2,4-dihydroxy-5-isopropylbenzoyl)isoindolin-5-yl)methyl)piperazin-1-yl)pentyl)carbamoyl)-2-(6-(dimethylamino)-3-(dimethyliminio)-3H-xanthen-9-yl)benzoate (referred to hereinafter as “probe compound”) in assay buffer (prepared from a 100 μM DMSO stock) with a MultiDrop Combi (ThermoFisher). The final concentration of N-terminal PMS2 was 10 nM and the final concentration of probe compound was 5 nM.
(Polarisation of emitted light reports the rotation of a fluorescent probe.)

The target of assay [2] is T2, DNA mismatch repair protein Mlh1 (UniProt P40692).
T2 sequence (P40692 whole entry): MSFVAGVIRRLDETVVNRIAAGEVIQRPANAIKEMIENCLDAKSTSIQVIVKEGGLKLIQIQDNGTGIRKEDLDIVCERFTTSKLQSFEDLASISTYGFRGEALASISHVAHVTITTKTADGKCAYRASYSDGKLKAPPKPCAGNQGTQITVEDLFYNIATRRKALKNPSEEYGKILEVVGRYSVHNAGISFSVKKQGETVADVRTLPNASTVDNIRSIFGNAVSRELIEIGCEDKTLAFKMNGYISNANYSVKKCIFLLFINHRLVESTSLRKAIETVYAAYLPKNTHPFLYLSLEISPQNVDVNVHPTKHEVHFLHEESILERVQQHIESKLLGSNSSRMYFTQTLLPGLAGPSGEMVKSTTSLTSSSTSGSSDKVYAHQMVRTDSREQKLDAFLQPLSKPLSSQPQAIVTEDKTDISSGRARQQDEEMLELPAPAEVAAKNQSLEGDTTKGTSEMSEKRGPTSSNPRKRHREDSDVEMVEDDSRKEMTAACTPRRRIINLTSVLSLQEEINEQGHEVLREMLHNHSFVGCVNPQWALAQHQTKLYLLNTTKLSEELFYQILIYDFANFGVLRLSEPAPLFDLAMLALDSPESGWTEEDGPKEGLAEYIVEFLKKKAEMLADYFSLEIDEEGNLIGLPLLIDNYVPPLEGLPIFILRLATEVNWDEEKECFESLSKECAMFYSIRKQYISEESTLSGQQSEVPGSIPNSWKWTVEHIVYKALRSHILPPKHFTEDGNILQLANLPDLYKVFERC
Description: Fluorescence Polarisation Assay for MLH1. As to the method: 20 μL assay buffer was added to all wells in columns 1 and 24 (column 24 only for single point screening) using a MultiDrop Combi (ThermoFisher). Plates were centrifuged for 1 minute at 250×g and were incubated at room temperature for 30 minutes prior to the addition of 20 μL of 2×(10 nM) of 5-((5-(4-((2-(2,4-dihydroxy-5-isopropylbenzoyl)isoindolin-5-yl)methyl)piperazin-1-yl)pentyl)carbamoyl)-2-(6-(dimethylamino)-3-(dimethyliminio)-3H-xanthen-9-yl)benzoate (referred to hereinafter as “probe compound”) in assay buffer (prepared from a 100 μM DMSO stock) with a MultiDrop Combi (ThermoFisher). The final concentration of N-terminal MLH1 was 100 nM and the final concentration of probe compound was 5 nM.

With `Cc1c(O)cc(O)c(C(=O)N2Cc3cccnc3C2)c1OCc1ccccc1` [US12552758, Example 30], the half-inhibitory concentration (IC50) in assay [1] was under 1 µM; in assay [2] it was over 10 µM.
Consider `Cc1c(O)cc(O)c(C(=O)N2Cc3cccc(Br)c3C2)c1OCc1ccccc1` [US12552758, Example 38], for which the figures for the IC50 in assay [1] and in assay [2] were under 1 µM and over 10 µM, respectively.

Source of the values: BindingDB's records for patent US12552758 (Neophore, 2026).
